The assay deals with Puccinia recondita. Nature of the assay: Protective activity against Puccinia recondita on wheat (brown rust of wheat) (Puccrt P1). It counts as in vivo, Puccinia recondita on wheat seedlings cultivar "Kanzler". The following applies: single active compound, protective spray 1 day before inoculation, efficacy in % of untreated control (Abbot), read-out: Observed activity (%). As for the experimental part:
The active compounds, separately or jointly, were prepared as a stock solution comprising 25 mg of active compound which was made up to 10 ml using a mixture of acetone and/or dimethyl sulfoxide and the emulsifier Uniperol® EL (wetting agent having an emulsifying and dispersing action based on ethoxylated alkylphenols) in a ratio by volume of solvent/emulsifier of 99:1. The mixture was then made up to 100 ml with water. This stock solution was diluted with the solvent/emulsifier/water mixture described to give the concentration of active compound stated below.
The visually determined percentages of infected leaf areas were converted into efficacies in % of the untreated control:
The efficacy (E) is calculated as follows using Abbot's formula. W=(1−α/β)·100 α corresponds to the fungicidal infection of the treated plants in % and β corresponds to the fungicidal infection of the untreated (control) plants in %
At an efficacy of 0, the infection level of the treated plants corresponds to that of the untreated control plants; at an efficacy of 100, the treated plants are not infected.
The expected efficacies of active compound mixtures were determined using Colby's formula (S. R. Colby, “Calculating synergistic and antagonistic responses of herbicide combinations”, Weeds 15, 20-22 (1967)) and compared with the observed efficacies.
Colby's formula: E=x+y−x−y/100 • E expected efficacy, expressed in % of the untreated control, when using the mixture of the active compounds A and B at the concentrations a and b; • x efficacy, expressed in % of the untreated control, when using the active compound A at the concentration a; • y efficacy, expressed in % of the untreated control, when using the active compound B at the concentration b;
Leaves of potted wheat seedlings of the cultivar “Kanzler” were sprayed to runoff point with an aqueous suspension having the concentration of active compound stated below. […] The extent of the rust fungus development on the leaves was then determined visually.

The structures appear in SMILES notation.

Consider `O=C(Nc1ccccc1-c1ccc(Cl)cc1)c1cccnc1Cl` [Boscalid, boscalid], for which the inhibition at 8 ppm (8 ppm) worked out at 22%.

With `Cc1cc(C)nc(Nc2ccccc2)n1` [Pyrimethanil, pyrimethanil], the inhibition at 2 ppm (2 ppm) stood at 0%. For the same molecule, for the setting “4 ppm”, the inhibition at 4 ppm stood at 0%.
